The molecules below were run against CaMKIIδ (Homo sapiens (Human), UniProt Q13557) (assay: In vitro CaMKIIδ activity assay (coupled assay measuring ADP released, peptide substrate AC3)). Conditions: full length C-terminal His/Gln tagged CaMKIIδ construct, 16 nM enzyme, 25° C., duplicate.
Format: biochemical
Procedure: An exemplary procedure for the in vitro CaMKIIδ inhibition assay, which can be used to determine the inhibitory action of compounds of the invention toward CaMKII, follows. The procedure is taken from Chao L H, et al., (2010) Nat Struct Mol Biol. 17(3): 264-272, which is incorporated herein by reference in its entirety.
The inhibition of CaMKII activity was evaluated using a coupled assay measuring ADP released following ATP hydrolysis and phosphor-transfer to the peptide substrate AC3 (KKALHRQETVDAL; SEQ ID NO: 1) (1). A full length, C-terminal His/Gln tagged CaMKIIδ construct was used (sequence in Table 3 below).
Compounds were added in 5 uL volume to wells in UV transparent 96-well plates (½ area well size). The final compound concentrations tested ranged from 0.5 nM to 10 uM). Assays were performed in duplicate. CaMKIIδ is added to at a final concentration of 16 nM to a mixture containing 100 mM Tris (pH 7.5), 150 mM KCl, 0.27 mM EGTA, 1.3 mM PEP, 0.2 mg/ml AC3, 6.9% (v/v) PK/LDH mixture (Sigma P0294), 0.38 mM NADH and kept on ice. 72 uL of the enzyme mixture was added to the wells containing compounds and the plate was shaken briefly and kept on ice. The assay was initiated by adding 23 uL of a mixture containing 100 mM Tris (pH 7.5), 150 mM KCl, 1.7 mM CaCl2, 48 mM MgCl2, 0.35 mM ATP and 6.7 ug/mL calmodulin. The rate of ADP released was measured as the rate of absorbance decrease at […] at 25° C. and plotted against the log of the compound concentration (FIG. 1). IC50 data were fitted using GraphPad Prism software.

Row | SMILES | IC50 [µM]
1 | C(=C\c1ccnc2[nH]c3ccccc3c12)/CN1CCNCC1 [Compound 9h] | ≥ 1
2 | C(=C/c1ccnc2[nH]c3ccccc3c12)/CN1CCNCC1 [Compound 9o] | ≥ 1
3 | c1ccc2c(c1)[nH]c1nccc(-c3cc[nH]c3)c12 [Compound 8q] | 0.25 to 1
4 | Cc1nn(C2CCNCC2)cc1-c1ccnc2[nH]c3ccccc3c12 [Compound 9l] | ≥ 1
5 | c1ccc2c(c1)[nH]c1nccc(-c3cnc(N4CCNCC4)s3)c12 [Compound 9k] | ≥ 1
6 | c1ccc2c(c1)[nH]c1nccc(-n3cc(C4CCNCC4)nn3)c12 [Compound 9e] | ≥ 1
7 | Clc1cnccc1-c1ccnc2[nH]c3ccccc3c12 [Compound 8r] | ≥ 1
8 | Clc1ccncc1-c1ccnc2[nH]c3ccccc3c12 [Compound 8p] | ≥ 1
9 | c1ccc2c(c1)[nH]c1nccc(-c3cncc(N4CCNCC4)c3)c12 [Compound 9a] | 0.25 to 1
10 | C(#Cc1ccnc2[nH]c3ccccc3c12)CN1CCNCC1 [Compound 9n] | 0.25 to 1
11 | c1ccc2c(c1)[nH]c1nccc(-c3cnn(C4CCNCC4)c3)c12 [Compound 9m] | ≥ 1
12 | c1cc(-c2ccnc3[nH]c4ccccc4c23)nc(N2CCNCC2)c1 [Compound 9j] | ≤ 0.05

The remaining lines, values ahead:

Row | IC50 [µM] | SMILES
13 | ≥ 1 | c1cc(-c2ccnc3[nH]c4ccccc4c23)cc(-n2ccnc2)c1 [Compound I-2, 4-(3-(1H-imidazol-1-yl)phenyl)-9H-pyrido[2,3-b]indole]
14 | ≤ 0.05 | NCCNc1cccc(-c2ccnc3[nH]c4ccc(Cl)cc4c23)c1 [Compound I-14, N1-(3-(6-chloro-9H-pyrido[2,3-b]indol-4-yl)phenyl)ethane-1,2-diamine]
15 | ≤ 0.05 | NCCCOc1cccc(-c2ccnc3[nH]c4ccccc4c23)c1 [Compound I-10, 3-(3-(9H-pyrido[2,3-b]indol-4-yl)phenoxy)propan-1-amine]
16 | ≥ 1 | NCc1cccc(-c2ccnc3[nH]c4ccccc4c23)c1 [Compound I-3]
17 | ≤ 0.05 | NCCOc1cccc(-c2ccnc3[nH]c4ccccc4c23)c1 [Compound I-9, 2-(3-(9H-pyrido[2,3-b]indol-4-yl)phenoxy)ethanamine]
18 | ≤ 0.05 | Cc1ccc2[nH]c3nccc(-c4cccc(NCCN)c4)c3c2c1 [Compound I-13, N1-(3-(6-methyl-9H-pyrido[2,3-b]indol-4-yl)phenyl)ethane-1,2-diamine]
19 | ≤ 0.05 | COc1ccc2c(c1)[nH]c1nccc(-c3cccc(NCCN)c3)c12 [Compound I-12, N1-(3-(7-methoxy-9H-pyrido[2,3-b]indol-4-yl)phenyl)ethane-1,2-diamine]
20 | ≤ 0.05 | NCCNc1cccc(-c2ccnc3[nH]c4ccccc4c23)c1 [Compound I-7, N1-(3-(9H-pyrido[2,3-b]indol-4-yl)phenyl)ethane-1,2-diamine]
